Measurements: ChEMBL document CHEMBL1201862, “PubChem BioAssay data set” (2004)
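Protocol summary: plate cells (96-well), add compound at 5 concentrations, incubate 48 h, interpolate endpoints linearly. GI50 = concentration required for 50% inhibition of growth.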 Calls of active or inactive are those of the source. Cut-off read from the data, not from the text of the source: active = GI50 up to about 1.1 µM and inactive = higher.

Columns and labels:
Assay in all cases: NCI-60 cell line screen, 48 h
[1] = test system: 786-0
[2] = test system: A498
[3] = test system: A549
[4] = test system: ACHN
[5] = test system: CAKI-1
[6] = test system: CCRF-CEM
[7] = test system: COLO 205
[8] = test system: DLD-1
[9] = test system: DMS-114
[10] = test system: DMS-273
[11] = test system: EKVX
[12] = test system: HCC 2998
[13] = test system: HCT-116
[14] = test system: HCT-15
[15] = test system: HL-60
[16] = test system: HOP-18
[17] = test system: HOP-62
[18] = test system: HT-29
[19] = test system: IGROV-1
[20] = test system: K562
[21] = test system: KM-20L2
[22] = test system: KM12
[23] = test system: LOX IMVI
[24] = test system: LXFL 529
[25] = test system: M14
[26] = test system: M19-MEL
[27] = test system: MOLT-4
[28] = test system: Malme-3M
[29] = test system: NCI-H226
[30] = test system: NCI-H23
[31] = test system: NCI-H460
[32] = test system: NCI-H522
[33] = test system: OVCAR-3
[34] = test system: OVCAR-4
[35] = test system: OVCAR-5
[36] = test system: OVCAR-8
[37] = test system: RXF 393
[38] = test system: RXF 631
[39] = test system: SF-268
[40] = test system: SF-295
[41] = test system: SF-539
[42] = test system: SK-MEL-28
[43] = test system: SK-MEL-2
[44] = test system: SK-MEL-5
[45] = test system: SK-OV-3
[46] = test system: SN12C
[47] = test system: SNB-19
[48] = test system: SNB-75
[49] = test system: SNB-78
[50] = test system: SW-620
[51] = test system: TK-10
[52] = test system: U-251
[53] = test system: UACC-257
[54] = test system: UACC-62
[55] = test system: HOP-92
[56] = test system: UO-31

## Cc1cc2c(cc1C)[n+]([O-])c(C(=O)C/C(=N/NC(=O)c1ccccc1O)C(=O)Nc1ccccc1C(C)C)c(C)[n+]2[O-]
[1]
  GI50: 88.1 µM (inactive)
[2]
  GI50: > 100 µM (inactive)
[3]
  GI50: > 100 µM (inactive)
[4]
  GI50: > 100 µM (inactive)
[5]
  GI50: > 100 µM (inactive)
[6]
  GI50: 27.3 µM (inactive)
[7]
  GI50: > 100 µM (inactive)
[8]
  GI50: 53.7 µM (inactive)
[9]
  GI50: 98.6 µM (inactive)
[10]
  GI50: 99.5 µM (inactive)
[11]
  GI50: > 100 µM (inactive)
[12]
  GI50: > 100 µM (inactive)
[13]
  GI50: > 100 µM (inactive)
[14]
  GI50: > 100 µM
[15]
  GI50: 14.8 µM (inactive)
[16]
  GI50: 89.5 µM (inactive)
[17]
  GI50: > 100 µM (inactive)
[18]
  GI50: > 100 µM (inactive)
[19]
  GI50: > 100 µM (inactive)
[20]
  GI50: 31.6 µM (inactive)
[21]
  GI50: > 100 µM (inactive)
[22]
  GI50: > 100 µM (inactive)
[23]
  GI50: 87.3 µM (inactive)
[24]
  GI50: 63 µM (inactive)
[25]
  GI50: > 100 µM (inactive)
[26]
  GI50: > 100 µM (inactive)
[27]
  GI50: 21.9 µM (inactive)
[28]
  GI50: > 100 µM (inactive)
[29]
  GI50: > 100 µM (inactive)
[30]
  GI50: > 100 µM (inactive)
[31]
  GI50: 61.8 µM (inactive)
[32]
  GI50: 42.6 µM (inactive)
[33]
  GI50: 37.2 µM (inactive)
[34]
  GI50: 54.1 µM (inactive)
[35]
  GI50: > 100 µM (inactive)
[36]
  GI50: > 100 µM (inactive)
[37]
  GI50: > 100 µM (inactive)
[38]
  GI50: > 100 µM (inactive)
[39]
  GI50: 68.2 µM (inactive)
[40]
  GI50: > 100 µM (inactive)
[41]
  GI50: > 100 µM (inactive)
[42]
  GI50: > 100 µM (inactive)
[43]
  GI50: > 100 µM (inactive)
[44]
  GI50: > 100 µM (inactive)
[45]
  GI50: > 100 µM (inactive)
[46]
  GI50: > 100 µM (inactive)
[47]
  GI50: > 100 µM (inactive)
[48]
  GI50: 88.5 µM (inactive)
[49]
  GI50: > 100 µM (inactive)
[50]
  GI50: 97.1 µM (inactive)
[51]
  GI50: > 100 µM (inactive)
[52]
  GI50: > 100 µM (inactive)
[53]
  GI50: > 100 µM (inactive)
[54]
  GI50: 68.1 µM (inactive)

## Cc1ccccc1NC(=O)c1cc(-c2ccc([N+](=O)[O-])cc2)nc(S)n1
[1]
  GI50: > 100 µM (inactive)
[3]
  GI50: > 100 µM (inactive)
[4]
  GI50: > 100 µM (inactive)
[5]
  GI50: > 100 µM (inactive)
[6]
  GI50: > 10 µM (inactive)
[7]
  GI50: > 100 µM (inactive)
[8]
  GI50: > 100 µM (inactive)
[9]
  GI50: > 100 µM (inactive)
[10]
  GI50: > 100 µM (inactive)
[11]
  GI50: > 100 µM (inactive)
[12]
  GI50: > 100 µM (inactive)
[13]
  GI50: > 100 µM (inactive)
[14]
  GI50: > 100 µM
[15]
  GI50: > 100 µM (inactive)
[16]
  GI50: > 100 µM (inactive)
[17]
  GI50: > 100 µM (inactive)
[55]
  GI50: > 100 µM (inactive)
[18]
  GI50: > 100 µM (inactive)
[19]
  GI50: > 100 µM (inactive)
[20]
  GI50: > 100 µM (inactive)
[21]
  GI50: > 100 µM (inactive)
[22]
  GI50: > 100 µM (inactive)
[23]
  GI50: > 100 µM (inactive)
[24]
  GI50: > 100 µM (inactive)
[25]
  GI50: > 100 µM (inactive)
[27]
  GI50: > 100 µM (inactive)
[28]
  GI50: > 100 µM (inactive)
[29]
  GI50: > 100 µM (inactive)
[30]
  GI50: > 100 µM (inactive)
[31]
  GI50: > 100 µM (inactive)
[33]
  GI50: > 100 µM (inactive)
[34]
  GI50: > 100 µM (inactive)
[35]
  GI50: > 100 µM (inactive)
[36]
  GI50: > 100 µM (inactive)
[37]
  GI50: > 100 µM (inactive)
[38]
  GI50: > 100 µM (inactive)
[39]
  GI50: > 100 µM (inactive)
[40]
  GI50: > 100 µM (inactive)
[41]
  GI50: > 100 µM (inactive)
[42]
  GI50: > 100 µM (inactive)
[43]
  GI50: > 100 µM (inactive)
[44]
  GI50: > 100 µM (inactive)
[45]
  GI50: > 100 µM (inactive)
[46]
  GI50: > 100 µM (inactive)
[47]
  GI50: > 100 µM (inactive)
[49]
  GI50: > 100 µM (inactive)
[50]
  GI50: > 100 µM (inactive)
[51]
  GI50: > 100 µM (inactive)
[52]
  GI50: > 100 µM (inactive)
[53]
  GI50: > 100 µM (inactive)
[54]
  GI50: > 100 µM (inactive)
[56]
  GI50: > 100 µM (inactive)
